From the Kinase Knowledgebase extract (Sharma et al. 2016)

Biological target: PIK3CA (human) (UniProt P42336)
Experiment: Inhibition of PIK3CA Kinase Activity

PIK3CA (human), sequence (P42336 whole entry, looked up): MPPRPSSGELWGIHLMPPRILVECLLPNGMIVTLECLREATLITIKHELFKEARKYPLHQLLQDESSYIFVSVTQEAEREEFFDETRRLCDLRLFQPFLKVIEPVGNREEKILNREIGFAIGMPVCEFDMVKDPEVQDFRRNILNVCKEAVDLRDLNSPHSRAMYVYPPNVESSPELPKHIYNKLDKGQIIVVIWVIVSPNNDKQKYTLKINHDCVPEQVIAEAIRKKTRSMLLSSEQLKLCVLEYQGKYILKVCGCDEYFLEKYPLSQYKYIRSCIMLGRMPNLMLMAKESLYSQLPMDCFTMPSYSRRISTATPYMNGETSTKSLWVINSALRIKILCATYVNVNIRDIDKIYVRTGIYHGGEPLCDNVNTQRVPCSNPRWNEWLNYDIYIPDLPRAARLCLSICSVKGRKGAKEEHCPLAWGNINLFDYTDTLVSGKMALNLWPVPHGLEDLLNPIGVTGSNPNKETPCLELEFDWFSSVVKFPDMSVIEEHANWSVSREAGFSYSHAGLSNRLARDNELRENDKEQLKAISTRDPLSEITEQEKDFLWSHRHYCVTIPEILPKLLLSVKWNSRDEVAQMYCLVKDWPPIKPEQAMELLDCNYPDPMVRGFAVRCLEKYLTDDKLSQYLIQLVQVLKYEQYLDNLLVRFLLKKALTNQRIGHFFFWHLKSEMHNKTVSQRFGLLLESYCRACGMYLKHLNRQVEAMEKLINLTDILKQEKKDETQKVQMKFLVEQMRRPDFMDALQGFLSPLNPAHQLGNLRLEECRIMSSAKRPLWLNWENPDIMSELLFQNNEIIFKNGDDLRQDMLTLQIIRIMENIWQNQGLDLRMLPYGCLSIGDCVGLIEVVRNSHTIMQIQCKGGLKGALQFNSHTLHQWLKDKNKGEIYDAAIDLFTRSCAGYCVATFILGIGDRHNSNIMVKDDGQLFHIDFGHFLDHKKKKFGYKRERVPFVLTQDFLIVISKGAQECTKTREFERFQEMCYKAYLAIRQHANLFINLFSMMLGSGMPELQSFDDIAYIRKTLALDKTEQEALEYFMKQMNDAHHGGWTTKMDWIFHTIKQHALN

Compound | IC50 [nM]
COc1cc2c(N3CCOc4ccc(-c5ccc6nc(C)[nH]c6c5)cc4C3)ncnc2c(OC)c1OC | 50 to 250
Cc1nc2cc(-c3ccc4c(c3)CN(c3nc(N)nc(C)c3Cc3ccc(F)cc3)CCO4)cnc2[nH]1 | ≤ 10
Cc1nc2cc(-c3ccc4c(c3)CN(c3nc(C5CCCN5)nc5c3CC(C)(C)CC5)CCO4)cnc2[nH]1 (stereo unspecified) | 10 to 50
CC1(C)CCc2ncnc(N3CCOc4ccc(-c5cnc(N)c(S(=O)(=O)NC[C@H]6C[C@H]7CNC[C@H]7C6)c5)cc4C3)c2C1 | 50 to 250
CCNc1nc2ccc(-c3ccc4c(c3)CN(c3nc(C)nc5cc(F)ccc35)CCO4)cc2[nH]1 | ≤ 10
Cc1nc2ccc(-c3ccc4c(c3)CN(c3nc(CN(C)C)nc5c3CC(C)(C)CC5)CCO4)cc2[nH]1 | ≤ 10
Cc1nc2ncc(-c3ccc4c(c3)CN(c3nc(CN5CC[C@@H](F)C5)nc5c3CC(C)(C)CC5)CCO4)cc2[nH]1 | ≤ 10
CC1=Cc2ncnc(N3CCOc4ccc(-c5cnc(N)c(S(=O)(=O)NC[C@H]6CCN(C)C6)c5)cc4C3)c2CC1(C)C | 10 to 50
CC1(C)CCc2nc(CC#N)nc(N3CCOc4ccc(-c5cnc6sc(N)nc6c5)cc4C3)c2C1 | 10 to 50
CC[C@H]1CCc2c(nc(CN(C)C)nc2N2CCOc3ccc(-c4cnc5nc(C)[nH]c5c4)cc3C2)C1 | ≤ 10
CNS(=O)(=O)c1cc(-c2ccc3c(c2)CN(c2ncnc4c2CC(C)(C)CC4)CCO3)cnc1N | ≤ 10
Cc1nc2cc(-c3ccc4c(c3)CN(c3nc(CN(C)C)nc(C)c3C)CCO4)cnc2[nH]1 | 10 to 50
CCc1nc2ncc(-c3ccc4c(c3)CN(c3nc(C)nc5c3CC(C)(C)CC5)CCO4)cc2[nH]1 | 10 to 50
CNS(=O)(=O)c1cc(-c2ccc3c(c2)CN(c2ncnc(C)c2Cc2ccc(F)cc2)CCO3)cnc1N | 50 to 250
Cc1nc2ncc(-c3ccc4c(c3)CN(c3ncnc(C)c3CC3CC3)CCO4)cc2[nH]1 | 50 to 250
COc1ccc2c(N3CCOc4ccc(-c5cnc6nc[nH]c6c5)cc4C3)nc(C)nc2c1 | ≤ 10
CC1=Cc2ncnc(N3CCOc4ccc(-c5cnc6nc(C)[nH]c6c5)cc4C3)c2CC1(C)C | 10 to 50
CC1(C)CCc2ncnc(N3CCOc4ccc(-c5cnc(N)c(S(=O)(=O)NC6CC7CCC(C6)N7)c5)cc4C3)c2C1 (stereo unspecified) | 50 to 250
COCCNS(=O)(=O)c1cc(-c2ccc3c(c2)CN(c2ncnc4c2CC(C)(C)CC4)CCO3)cnc1N | 10 to 50
COc1ccc2c(N3CCOc4ccc(-c5ccc(-c6c[nH]cn6)cc5)cc4C3)nc(C)nc2c1 | 50 to 250
CN(C)c1nc2ccc(-c3ccc4c(c3)CN(c3ccnc5ccccc35)CCO4)cc2[nH]1 | 250 to 1000
Cc1ncnc(N2CCOc3ccc(-c4ccc(N)nn4)cc3C2)c1Cc1ccc(F)cc1 | 250 to 1000

Compound | IC50 [nM]
Cc1nc2cc(-c3ccc4c(c3)CN(c3nc(CN(C)C)nc(C)c3CC(C)C)CCO4)ccc2[nH]1 | 250 to 1000
Cc1ncnc(N2CCOc3ccc(-c4ccc5nc(N)[nH]c5c4)cc3C2)c1Cc1ccc(F)cc1 | 10 to 50
Cc1ncnc(N2CCOc3ccc(-c4cnc5nc(N)[nH]c5c4)cc3C2)c1Cc1ccc(F)cc1 | ≤ 10
Cc1nc(CN(C)C)nc(N2CCOc3ccc(-c4cnc5sc(N)nc5c4)cc3C2)c1CC(C)C | 50 to 250
CC1(C)CCc2ncnc(N3CCOc4ccc(-c5cnc6[nH]c(C7CC7)nc6c5)cc4C3)c2C1 | 10 to 50
Cc1nc2ccc(-c3ccc4c(c3)CN(c3ncnc(C)c3CC3CC3)CCO4)cc2[nH]1 | 50 to 250
Cc1ncnc(N2CCOc3ccc(-c4ccn5nc(N)nc5c4)cc3C2)c1Cc1ccc(F)cc1 | 10 to 50
CC1(C)CCc2ncnc(N3CCOc4ccc(-c5cnc(N)c(S(=O)(=O)N6CCC(N)C6)c5)cc4C3)c2C1 (stereo unspecified) | 10 to 50
CCc1c(C)ncnc1N1CCOc2ccc(-c3cnc4nc(C)[nH]c4c3)cc2C1 | 50 to 250
CC1=Cc2ncnc(N3CCOc4ccc(-c5cnc(N)c(S(=O)(=O)N6CC[C@@H](N)C6)c5)cc4C3)c2CC1(C)C | 10 to 50
CC1(C)CCc2nc(CO)nc(N3CCOc4ccc(-c5cnc6sc(N)nc6c5)cc4C3)c2C1 | ≤ 10
COc1ccc2ncnc(N3CCOc4ccc(-c5ccc6nc(C)[nH]c6c5)cc4C3)c2c1 | 50 to 250
CC(=O)OCc1nc(C)c(Cc2ccc(F)cc2)c(N2CCOc3ccc(-c4ccc5[nH]c(C)nc5c4)cc3C2)n1 | 10 to 50
CC(O)c1nc2cc(-c3ccc4c(c3)CN(c3ncnc5c3CC(C)(C)CC5)CCO4)cnc2[nH]1 (stereo unspecified) | 50 to 250
Cc1nc2ncc(-c3ccc4c(c3)CN(c3ncnc5c3CCC(C(F)(F)F)C5)CCO4)cc2[nH]1 (stereo unspecified) | 50 to 250
Cc1nc2ccc(-c3ccc4c(c3)CN(c3ccnc5ccccc35)CCO4)cc2[nH]1 | 10 to 50
CC1(C)CCc2ncnc(N3CCOc4ccc(-c5cncc(S(N)(=O)=O)c5)cc4C3)c2C1 | 50 to 250
CN(C)C(=O)c1cc(-c2ccc3c(c2)CN(c2ncnc4c2CC(C)(C)CC4)CCO3)cnc1N | 250 to 1000
COc1cc2c(N3CCOc4ccc(-c5ccc6nc(C)[nH]c6c5)cc4C3)ncnc2cc1O | 10 to 50
CC1(C)CCc2ncnc(N3CCOc4ccc(-c5cnc(N)c(S(=O)(=O)NC(C)(C)CO)c5)cc4C3)c2C1 | 50 to 250
Cc1nc2ccc(-c3ccc4c(c3)CN(c3ncnc5c(Cl)cc(Cl)cc35)CCO4)cc2[nH]1 | 250 to 1000
Cc1nc2ncc(-c3ccc4c(c3)CN(c3nc(CNC5CCC5)nc5c3CC(C)(C)CC5)CCO4)cc2[nH]1 | 10 to 50

Compound | IC50 [nM]
Cc1nc(CN(C)C)nc(N2CCOc3ccc(-c4cnc5sc(N)nc5c4)cc3C2)c1C(C)C | ≤ 10
CC[C@H]1CCc2c(nc(C)nc2N2CCOc3ccc(-c4cnc(N)c(S(=O)(=O)N5CCC(C)(N)C5)c4)cc3C2)C1 (stereo partly specified) | ≤ 10
CN(C)Cc1nc2c(c(N3CCOc4ccc(-c5ccc6[nH]c(C(F)F)nc6c5)cc4C3)n1)CC(C)(C)CC2 | 10 to 50
Cc1ncnc(N2CCOc3ccc(-c4cnc(N)cn4)cc3C2)c1Cc1ccc(F)cc1 | 250 to 1000
CC1(C)CCc2ncnc(N3CCOc4ccc(-c5cnc(N)c(S(=O)(=O)N6CC(F)(F)C6)c5)cc4C3)c2C1 | 50 to 250
Cc1ncnc(N2CCOc3ccc(-c4cnc5nc(N)cn5c4)cc3C2)c1Cc1ccc(F)cc1 | 50 to 250
CN(C)Cc1nc2c(c(N3CCOc4ccc(-c5ccc(Cl)c(C(N)=O)c5)cc4C3)n1)CC(C)(C)CC2 | 250 to 1000
Cc1nc2ncc(-c3ccc4c(c3)CN(c3ncnc5c3CCCC5(C)C)CCO4)cc2[nH]1 | 50 to 250
Cc1nc2ncc(-c3ccc4c(c3)CN(c3ncncc3C)CCO4)cc2[nH]1 | 250 to 1000
CCNc1nc2ccc(-c3ccc4c(c3)CN(c3ccnc5ccc(F)cc35)CCO4)cc2[nH]1 | 10 to 50
CC1=C(C)C(C)(C)Cc2c1ncnc2N1CCOc2ccc(-c3cnc4nc(C)[nH]c4c3)cc2C1 | 10 to 50
Cc1nc2ccc(-c3ccc4c(c3)CN(c3ccnc5cc(C#N)ccc35)CCO4)cc2[nH]1 | 50 to 250
Cc1nc2cc(-c3ccc4c(c3)CN(c3nc(CN5CCCC5)nc(C)c3C(C)C)CCO4)ccc2[nH]1 | 10 to 50
CCNc1nc2ccc(-c3ccc4c(c3)CN(c3nc(C)nc5cc(O)ccc35)CCO4)cc2[nH]1 | ≤ 10
COC(=O)Nc1nc2ccc(-c3ccc4c(c3)CN(c3ncnc5c3CC(C)(C)CC5)CCO4)cc2[nH]1 | 10 to 50
COc1ccc(-c2ccc3c(c2)CN(c2nc(CN(C)C)nc4c2CC(C)(C)CC4)CCO3)cc1OC(F)F | 10 to 50
Cc1nc2ccc(-c3ccc4c(c3)CN(c3ncnc5cc(C(F)(F)F)ccc35)CCO4)cc2[nH]1 | 50 to 250
Cc1c(NC2CCOCC2)ncnc1N1CCOc2ccc(-c3cnc4nc(C5CC5)[nH]c4c3)cc2C1 | 50 to 250
CCNc1nc2ccc(-c3ccc4c(c3)CN(c3nc(CC)nc5cc(OC)ccc35)CCO4)cc2[nH]1 | ≤ 10
c1ccc2c(N3CCOc4ccc(-c5ccc6[nH]ncc6c5)cc4C3)ccnc2c1 | 250 to 1000
CC1(C)CCc2ncnc(N3CCOc4ccc(-c5cnc(N)c(S(=O)(=O)NCCF)c5)cc4C3)c2C1 | ≤ 10
CC1(C)CCc2ncnc(N3CCOc4ccc(-c5cnc6[nH]c(C(F)F)nc6c5)cc4C3)c2C1 | 50 to 250

Compound | IC50 [nM]
Cc1nc2ncc(-c3ccc4c(c3)CN(c3nc(CN(C)C(C)C)nc5c3CC(C)(C)CC5)CCO4)cc2[nH]1 | ≤ 10
Cc1nc2ncc(-c3ccc4c(c3)CN(c3nc(CN(C)C)nc5ccc(F)cc35)CCO4)cc2[nH]1 | 10 to 50
COc1ccc2c(N3CCOc4ccc(-c5ccc6nc(C)[nH]c6c5)cc4C3)nc(C)nc2c1 | 10 to 50
Cc1nc2ncc(-c3ccc4c(c3)CN(c3ncnc(C)c3C(C)C)CCO4)cc2[nH]1 | 10 to 50
COc1ccc2c(N3CCOc4ccc(-c5ccc6nc(N)[nH]c6c5)cc4C3)nc(C)nc2c1 | ≤ 10
Cc1nc2cc(-c3ccc4c(c3)CN(c3nc([C@H]5CCCN5)nc5c3CC(C)(C)CC5)CCO4)ccc2[nH]1 | 10 to 50
CC1(C)CCc2ncnc(N3CCOc4ccc(-c5cnc(N)c(S(=O)(=O)N6CCOCC6)c5)cc4C3)c2C1 | 50 to 250
Cc1nc2cc(-c3ccc4c(c3)CN(c3nc(C(C)N(C)C)nc5c3CC(C)(C)CC5)CCO4)cnc2[nH]1 (stereo unspecified) | 10 to 50
CC1(C)CCc2ncnc(N3CCOc4ccc(-c5cnc(C#N)c(NS(C)(=O)=O)c5)cc4C3)c2C1 | 50 to 250
Cc1nc2cc(-c3ccc4c(c3)CN(c3nc(CN5CCCC5)nc5c3CC(C)(C)CC5)CCO4)ccc2[nH]1 | ≤ 10
Cc1nc2ccc(-c3ccc4c(c3)CN(c3ncnc(C(C)C)c3C)CCO4)cc2[nH]1 | 50 to 250
Cc1ncnc(N2CCOc3ccc(-c4ccc(C(=O)NC5CC5)cc4)cc3C2)c1Cc1ccc(F)cc1 | 250 to 1000
Cc1nc2cc(-c3ccc4c(c3)CN(c3nc(CO)nc(C)c3Cc3ccc(F)cc3)CCO4)ccc2[nH]1 | ≤ 10
COc1cc2ncnc(N3CCOc4ccc(-c5cnc6nc(N)[nH]c6c5)cc4C3)c2cc1OC | ≤ 10
Cc1nc2ccc(-c3ccc4c(c3)CN(c3ncnc(C)c3C(C)c3cccc(F)c3)CCO4)cc2[nH]1 (stereo unspecified) | ≤ 10
Cc1nc2ccc(-c3ccc4c(c3)CN(c3ncnc5c3CCC(C)(C)C5)CCO4)cc2[nH]1 | 50 to 250
COC(=O)Nc1nc2ccc(-c3ccc4c(c3)CN(c3ccnc5ccccc35)CCO4)cc2n1C | 250 to 1000
CCNCc1nc2c(c(N3CCOc4ccc(-c5cnc6nc(C)[nH]c6c5)cc4C3)n1)CC(C)(C)CC2 | ≤ 10
Cc1nc2ncc(-c3ccc4c(c3)CN(c3nc(CO)nc5c3CC(C)(C)CC5)CCO4)cc2[nH]1 | 10 to 50
CCNc1nc2ccc(-c3ccc4c(c3)CN(c3ncnc(Nc5ccccc5)c3C)CCO4)cc2[nH]1 | 10 to 50
